According to US8815799B2, “Inhibiting striated muscle activator of RHO (stars) to improve glycemic control” (Joslin Diabetes Center, Inc., priority 2010, dated 2014):
Entries after “also recorded” stand apart in the source; their conditions may differ.

Legend:
[1] = system: human myotubes; experiment: Basal glucose uptake in human myotubes from control and diabetic subjects; type: cell-based
Description: The effects of CCG-1423 on human myotubes, and whether these effects would differ in myotubes derived from controls (n=2) vs. diabetic subjects (n=6), were also evaluated. […] The differential responsiveness in subjects with DM supports the concept that SRF pathways are more robustly activated in humans with insulin resistance and DM, and therefore potentially more sensitive to SRF inhibition.

[2] = system: SRF, ELK1, SRF targets (ZYX, PDLIM7); experiment: Gene expression in skeletal muscle of HFD mice treated with CCG-1423; type: in vivo
Description: (§1) To examine the therapeutic potential of this SRF inhibitor in vivo, we assessed responses to CCG-1423 treatment in mice with diet-induced obesity. […] The HFD mice were administered CCG-1423 (0.15 mg/kg body weight intraperitoneally) for two weeks.

[3] = system: C2C12 myotubes; experiment: Deoxyglucose uptake in cultured myotubes (FIG. 11E); type: cell-based
From the text: (§2) Since CCG-1423 increased insulin signalling in myotubes, we hypothesized that CCG-1423 might also enhance glucose uptake. In DMSO (vehicle)-treated myotubes, insulin stimulated a 2-fold increase in deoxyglucose uptake in a dose-dependent manner, consistent with prior reports and the low insulin responsiveness in cultured myotubes (FIG. 11E). […] In parallel, expression of the dominant glucose transporters GLUT4 and GLUT1 was increased by CCG-1423 treatment by 4.1 and 2.5 fold, respectively (p<0.004).
(§3) To determine whether increased expression of STARS can modulate glucose uptake, basal and insulin-stimulated glucose uptake in are measured in L6 myotubes overexpressing STARS (day 6 of differentiation). In brief, following overnight serum starvation, myotubes are treated with insulin (0 to 100 nM) for 20 minutes and then incubated with transport solution (140 mM NaCl, 20 mM Hepes, 5 mM KCl, 2.5 mM MgSO4, 1.0 mM CaCl2, 10 μM 2-deoxyglucose, 0.5 μCi/mL [^3H]-2-deoxyglucose) for 10 minutes. Cells are lysed in 0.05N NaOH and radioactivity determined by scintillation counting. All assays are performed in quadruplicate and corrected by uptake in cytochalasin-treated wells. Glucose transport assays are also performed in STARS-Myc-GLUT4 cells, given their higher insulin responsiveness.

[4] = CCG-1423 treatment of high-fat diet-fed mice (glucose tolerance, insulin, body weight); type: in vivo
Description: as §1
In parallel, the high insulin levels associated with insulin resistance were normalized by CCG-1423 treatment (FIG. 13C).
To test this hypothesis, mice are treated with CCG-1423 in 2 models of murine insulin resistance: (1) high-fat diet-fed C57BL/6J mice (60% of calories from fat), or (2) genetically obese ob/ob mice. For these studies, mice are injected with CCG-1423 0.15 mg/kg/day or vehicle (DMSO), intraperitoneally, for 2 weeks. Body weight and food intake are monitored daily.

[5] = system: IRS-1; experiment: IRS-1 tyrosine phosphorylation and association with p85 PI 3-kinase in myotubes; type: cell-based
Description: FIG. 11D is a phosphoimmunoblot showing that CCG-1423 increases basal and insulin-stimulated tyrosine phosphorylation of IRS-1 and its association with p85-PI 3-kinase, in both control and DEX-treated myotubes. * indicates p<0.05, **p<0.01, ***p<0.001.
(§4) In parallel, CCG-1423 enhanced insulin action in C2C12 myotubes. Overnight treatment with 1 μM CCG-1423 increased insulin-stimulated Akt phosphorylation, both in the presence and absence of dexamethasone (41% for both, p=0.01 and p=0.007, respectively), while having no effect on p42/44 ERK phosphorylation (FIG. 11C).

[6] = system: GLUT4; experiment: GLUT4 expression in myotubes; type: cell-based; conditions: myotubes treated with CCG-1423
From the text: as §2
(§5) To address whether STARS and MKL1-dependent SRF transcriptional activity contribute to the pathophysiology of insulin resistance, experiments were performed to test whether modulation of STARS expression and/or SRF activation can improve key cellular phenotypes associated with insulin resistance, including insulin action and glucose uptake. L6 myotubes stably expressing Myc-GLUT4 were infected with an adenovirus containing a short hairpin targeting STARS, resulting in a 54% reduction in STARS protein expression; this was associated with a 3.7-fold increase in basal glucose uptake and a 3.6-fold increase in insulin-stimulated glucose uptake (FIG. 19A).

[7] = system: p42/44 ERK; experiment: p42/44 ERK phosphorylation in C2C12 myotubes; type: cell-based; conditions: overnight 1 μM CCG-1423 (FIG. 11C)
Description: as §4

[8] = system: SRF transcriptional activity; experiment: SRF transcriptional activity, 4x CArG (SRE) promoter luciferase reporter in C2C12 cells; type: cell-based; conditions: activity induced by serum, dexamethasone or insulin, CCG-1423 1 μM, 16 hours pre-treatment (FIG. 10, 11B)
Description: FIG. 11B is a bar graph showing the effect of CCG on SRF transcriptional activity. 4× CArG promoter is activated in response to serum stimulation (FBS 2 hours, control) and following overnight treatment with 100 μM dexamethasone (DEX) in C2C12 myoblasts. This SRF-mediated transcriptional activity was blocked by pre-treatment with CCG-1423 (1 μM, 16 hours).
To determine whether SRF transcriptional activity is also changed in insulin resistance, 4× tandem repeat of SRF binding element (SRE) CArG boxes (Kuwahara et al., Mol. Cell Biol. 25:3173-3181 (2005)) promoters linked to a luciferase gene were used as a reporter. […] These increases in SRF transcriptional activity in insulin resistant states could cause up-regulation of SRF target gene expression.

[9] = system: Myc-GLUT4 L6 myotubes; experiment: Glucose uptake in Myc-GLUT4 L6 myotubes; type: cell-based
Description: as §3, §5
To test the effect of reduced STARS expression (shRNA) and reduced SRF pathway activation (chemical inhibitor CCG-1423) in cultured myotubes, knock-down assays were performed. shSTARS target sequences (Forward 5′-[…] […] A-3′ (SEQ ID NO:1); Reverse 5′-[…] […] […]-3′ (SEQ ID NO:2)), or scrambled control (IDT RNA design), were cloned into pAdTrack-CMV adenoviral vector, and Myc-GLUT4 L6 myotubes were infected with amplified adenovirus (8×10^7 pfu/well, 6-well plate) at 3 days after differentiation. […] Thus, experimental reductions in STARS expression are associated with an increase insulin signaling and basal glucose uptake in cultured myotubes.
Since genetic knockdown of STARS expression enhanced glucose transport, a key question is whether pharmacologic inhibition of SRF transcriptional activity would similarly modulate glucose transport. Studies with CCG-1423, an SRF transcriptional inhibitor identified by compound library screening, were performed. […] By comparison, insulin stimulated glucose uptake by 1.6-fold (p<0.01; FIG. 20).

[10] = system: GLUT1; experiment: GLUT1 expression in myotubes; type: cell-based; conditions: myotubes treated with CCG-1423
From the text: as §2, §5

[11] = system: Akt; experiment: Akt phosphorylation (phosphoimmunoblot) in C2C12 myotubes; type: cell-based; conditions: for increase in insulin-stimulated Akt phosphorylation: C2C12 myotubes, overnight 1 μM CCG-1423
Description: The next experiments were performed to determine whether SRF transcriptional activity, rather than expression of SRF itself, is important for maintaining appropriate insulin sensitivity. A new compound, CCG-1423, is available for specifically inhibiting SRF transcriptional activity (Evelyn et al., Mol. Cancer Ther. 6:2249-2260 (2007)). […] CCG-1423 was then evaluated to test the possibility that reducing SRF transcriptional activity improves insulin sensitivity. Indeed, this is the case.
as §4

[12] = system: MKL1; experiment: MKL1 cellular localization in C2C12 myoblasts; type: cell-based
Description: Since MKL1 is known to shuttle between the cytosol and nucleus to modulate target gene expression (Vartiainen et al., Science. 316:1749-1752 (2007)), the possibility arises that MKL1 localization may differ in insulin resistant state as compared to the normal state. […] In the basal state, MKL1 predominantly localized to cytosol and partially in nucleus. After 30 minutes of serum stimulation, MKL1 translocated to the […]. […] To determine whether MKL1 and G actin complex formation is changed in insulin resistance, the nuclear and cytosolic fractions from C2C12 myotubes were co-immunoprecipitated with MKL1 and blotted with beta actin.
To determine if the effects of CCG-1423 on SRF activity were mediated via MKL1 localization, MKL1 localization was assessed in C2C12 myoblasts treated with CCG-1423.

[13] = system: L6 myotubes; experiment: 2-deoxyglucose uptake in L6 myotubes (FIG. 11E legend); type: cell-based; conditions: CCG-1423 1 μM, 16 hours
Description: FIG. 11E is a line graph showing that both basal and insulin-stimulated 2-deoxyglucose uptake are increased by >4-fold in L6 myotubes following CCG-1423, with enhanced insulin sensitivity (1 μM, 16 hours). * indicates p<0.05, **p<0.01,***p<0.001.
as §3

[14] = system: STARS; experiment: STARS expression in C2C12 myotubes after actin disruption; type: cell-based; conditions: disruption of actin
From the text: Additional pathway analysis using MAPPFinder confirmed that serum response factor (SRF)-dependent and actin-related cytoskeleton gene expression is increased in diabetes, and more importantly, also in insulin resistance. The top-ranking single gene differentially expressed in skeletal muscle in the fasting state is the Actin-binding Rho activating protein (ABRA), or STARS, increased by 2.5 fold in individuals with type 2 diabetes (p<0.01). This gene regulates intracellular actin dynamics and subcellular localization of MKL1/2, thus contributing to SRF-dependent gene transcription. Since disruption of actin by latrunculin B increases STARS expression in C2C12 cells by 50% in C2C12 myotubes (p<0.03, not shown), it was hypothesize that increased STARS expression in DM may reflect disruption of actin dynamics and also contribute to the pattern of increased SRF-related gene expression. Similar patterns of SRF-dependent expression are also observed in adipose tissue from insulin resistant subjects and in insulin resistant muscle.

[15] = CCG-1423 0.15 mg/kg intraperitoneally, two weeks
[16] = HFD mice, CCG-1423 0.15 mg/kg intraperitoneally, two weeks, vs vehicle-treated HFD mice, 0.15 mg/kg
[17] = control and DEX-treated myotubes (FIG. 11D)

CC(ONC(=O)c1cc(C(F)(F)F)cc(C(F)(F)F)c1)C(=O)Nc1ccc(Cl)cc1 (stereo not shown) [CCG-1423]
basal increase in glucose uptake, mean ([1]; human myotubes from control subjects (n=2)): 1.2 fold
basal increase in glucose uptake, mean ([1]; human myotubes from diabetic subjects (n=6)): 3.2 fold
expression of ELK1 [2, 15]: did not alter
expression of SRF [2, 15]: did not alter
expression of SRF targets in skeletal muscle, e.g., ZYX and PDLIM7 ([2]; CCG-1423 two weeks, vs vehicle-injected controls): significantly decreased
increase in glucose uptake, basal state ([3]; myotubes incubated with CCG-1423 (FIG. 11E)): 4 fold
insulin-stimulated glucose uptake response ([3]; myotubes incubated with CCG-1423, 1 μM insulin (FIG. 11E)): 11.5 fold
serum insulin levels during glucose tolerance test ([4]; HFD mice, 15 minutes after glucose injection, vs vehicle-treated HFD animals): normalized; also recorded: significantly reduced
body weight [4, 16]: No significant change; also recorded: no differences; also recorded: not altered
food intake [4, 16]: No significant change; also recorded: no differences
in vivo glucose tolerance (intraperitoneal glucose tolerance test) [4, 16]: significantly improved; also recorded: improves glucose tolerance; also recorded: improved in vivo glucose tolerance
adiponectin levels ([4]; HFD mice, CCG-1423 two weeks): No differences
circulating fatty acid levels ([4]; HFD mice, CCG-1423 two weeks): No differences
insulin tolerance testing ([4]; HFD mice, CCG-1423 two weeks): No differences
glucose tolerance test area under the curve (AUC) ([4]; HFD mice, CCG-1423 two weeks, vs vehicle-treated HFD animals): significantly reduced
reduction of fed insulin levels ([4]; HFD-fed mice, CCG-1423 0.15 mg/kg/day intraperitoneally, 2 weeks, vs HFD-fed mice): 50%
association of IRS-1 with p85 regulatory subunit of PI 3-kinase [5, 17]: increases
basal and insulin-stimulated tyrosine phosphorylation of IRS-1 [5, 17]: increases
p85 expression ([5]; myotubes treated with CCG-1423): without altering
increase in GLUT4 expression [6]: 4.1 fold
p42/44 ERK phosphorylation [7]: no effect; also recorded: minimal change
inhibition of SRF transcriptional activity / SRE promoter activity [8]: specifically blocks SRF transcriptional activity; also recorded: reduced SRE promoter activity and efficiently blocked both serum- and dexamethasone-stimulated activation; also recorded: reduces SRE promoter activity; also recorded: inhibits SRF activity
basal and insulin-stimulated glucose uptake (figure legend) ([9]; Myc-GLUT4 L6 myotubes (FIG. 19A, FIG. 20)): increases basal and insulin-stimulated 2-deoxyglucose uptake
increase in basal glucose uptake ([9]; Myc-GLUT4 L6 myotubes, CCG-1423 1 μM, 16 hours): 1.9 fold
increase in glucose uptake, combination with insulin ([9]; Myc-GLUT4 L6 myotubes, combination of CCG-1423 and insulin): 2.6 fold
increase in GLUT1 expression [10]: 2.5 fold
increase in insulin-stimulated Akt phosphorylation ([11]; absence of dexamethasone): 41%
increase in insulin-stimulated Akt phosphorylation ([11]; presence of dexamethasone): 41%
insulin-stimulated Akt phosphorylation (marker of insulin sensitivity) ([11]; myotubes, with or without dexamethasone, insulin 100 nM, 10 minutes (FIG. 11A, 11C)): increased insulin-simulated Akt phosphorylation; also recorded: improves insulin-stimulated Akt phosphorylation; also recorded: increases insulin-stimulated Akt phosphorylation
MKL1 cytosol/nuclear localization [12]: almost exclusively localized to the cytoplasm; also recorded: reversed dexamethasone-induced MKL1 nuclear localization to partial cytoplasmic localization; also recorded: inhibition of MKL1 nuclear localization; also recorded: reduced nuclear translocation of MKL1
increase in basal and insulin-stimulated 2-deoxyglucose uptake [13]: > 4 fold

C/C1=C/C(=O)O[C@@H]2C[C@@H](CC[C@H](C)/C=C\CC1)O[C@@](O)([C@@H]1CSC(=O)N1)C2 [latrunculin B]
increase in STARS expression [14]: 50%

insulin
insulin-stimulated increase in deoxyglucose uptake ([3]; DMSO (vehicle)-treated myotubes, dose-dependent): 2 fold
insulin-stimulated glucose uptake ([9]; Myc-GLUT4 L6 myotubes, insulin alone (FIG. 20)): 1.6 fold
